According to patent publication US20240150293A1, “SPIROCYCLOHEXANE DERIVATIVES, PHARMACEUTICAL COMPOSITIONS CONTAINING THEM AND THEIR USES AS ANTI-APOPTOTIC INHIBITORS” (LES LABORATOIRES SERVIER, priority 2021, published 2024):
Where two headings read alike, the source gives them in different places.

What was measured:
[1] = target: Cy5-labelled Mcl1 (amino acids 171-321) C286S protein (UniProtKB Q07820) (Homo sapiens (Human), UniProt Q07820, C286S); assay: Inhibition of Mcl-1 by the fluorescence quenching assay (Example A, Method B); assay type: binding
How it was run: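 Cy5-labelled Mcl1 171-321 C286S (1 nM) quenched by TQ5WS-labelled PUMA peptide (10, 20 or 400 nM); displacement raises fluorescence (Ex 620/Em 680 nm). Buffer 10 mM HEPES, 150 mM NaCl, 0.05% Tween 20, pH 7.4, 5% DMSO; 2 h at room temperature, 11-point curves, IC50 converted to Ki (cKi/eKi).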

[2] = tested on: H929 multiple myeloma tumor line; assay: In vitro cytotoxicity, MTT assay (Example B, Method A); assay type: cell-based; settings: H929 cells, 48 hours exposure, read-out: C50
Protocol: The cytotoxicity studies were carried out on the H929 multiple myeloma tumor line.
The cells are distributed onto microplates and exposed to the test compounds for 48 hours. The cell viability is then quantified by a colorimetric assay, the Microculture Tetrazolium Assay (Carmichael et al, Cancer Res. 1987, 47, 939-942).
The results are expressed in C50 which means concentration corresponding to […] of effect/inhibition.

Sequence of Cy5-labelled Mcl1 (amino acids 171-321) C286S protein (Q07820 171-321 C286S): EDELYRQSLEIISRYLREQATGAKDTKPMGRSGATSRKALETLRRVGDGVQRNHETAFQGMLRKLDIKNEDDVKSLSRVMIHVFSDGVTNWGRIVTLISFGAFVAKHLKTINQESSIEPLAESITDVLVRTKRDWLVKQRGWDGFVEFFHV

| Ki [1] [nM] | Structure (SMILES) | IC50 ([2]; Homo sapiens, NCI-H929, 48 h) [nM] | IC50 [2] [nM] |
| --- | --- | --- | --- |
| 350 | C[C@@H](CNc1ccncc1)C[C@H]1Cc2ccccc2[C@]12CC[C@@](Nc1cccc(Cl)c1)(C(=O)O)CC2 [Example 575, (1r,2′S,4S)-4-(3-chloroanilino)-2′-{(2R)-2-methyl-3-[(pyridin-4-yl)amino]propyl}-2′,3′-dihydrospiro[cyclohexane-1,1′-indene]-4-carboxylic acid] | 16200 | – |
| 69.9 | C[C@@H](COc1c[nH]c2ccccc12)C[C@H]1Cc2ccccc2[C@]12CC[C@@](Nc1cccc(Cl)c1)(C(=O)O)CC2 [Example 628, (1r,2′S,4S)-4-(3-chloroanilino)-2′-{(2R)-3-[(1H-indol-3-yl)oxy]-2-methylpropyl}-2′,3′-dihydrospiro[cyclohexane-1,1′-indene]-4-carboxylic acid] | 2400 | – |
| 1.5 | C[C@@H](COc1ccnc2c1[C@H](C)CCC2)CC1=Cc2c(Cl)cccc2[C@]12CC[C@@](Nc1cccc(Cl)c1)(C(=O)O)CC2 [Example 739, (1r,4R)-4′-chloro-4-(3-chloroanilino)-2′-[(2R)-2-methyl-3-{[(5R)-5-methyl-5,6,7,8-tetrahydroquinolin-4-yl]oxy}propyl]spiro[cyclohexane-1,1′-indene]-4-carboxylic acid] | 87.2 | – |
| 50.9 | CC1CCCc2nccc(NC[C@H](C)C[C@H]3Cc4ccccc4[C@]34CC[C@@](Nc3cccc(Cl)c3)(C(=O)O)CC4)c21 (stereo partly drawn) [Example 655, (1r,2′S,4S)-4-(3-chloroanilino)-2′-{(2R)-2-methyl-3-[(5-methyl-5,6,7,8-tetrahydroquinolin-4-yl)amino]propyl}-2′,3′-dihydrospiro[cyclohexane-1,1′-indene]-4-carboxylic acid] | 8420 | – |
| 8 | C[C@@H](COc1ccnc2c1CCC2F)C[C@H]1Cc2ccccc2[C@]12CC[C@@](Nc1cccc(Cl)c1)(C(=O)O)CC2 (stereo partly drawn) [Example 603, (1r,2′S,4S)-4-(3-chloroanilino)-2′-{(2R)-3-[(7-fluoro-6,7-dihydro-5H-cyclopenta[b]pyridin-4-yl)oxy]-2-methylpropyl}-2′,3′-dihydrospiro[cyclohexane-1,1′-indene]-4-carboxylic acid] | 1110 | – |
| 0.737 | C[C@@H](COc1ccnc2c1[C@H](C)CCC2)C[C@@H]1Cc2ccc(COC3CCCO3)cc2[C@]12CC[C@@](Nc1cccc(Cl)c1)(C(=O)O)CC2 (stereo partly drawn) [Example 871, (1r,2′R,4R)-4-(3-chloroanilino)-2′-[(2R)-2-methyl-3-{[(5R)-5-methyl-5,6,7,8-tetrahydroquinolin-4-yl]oxy}propyl]-6′-{[(oxolan-2-yl)oxy]methyl}-2′,3′-dihydrospiro[cyclohexane-1,1′-indene]-4-carboxylic acid] | 114 | – |
| 29.9 | C[C@@H](COc1ccnc2c1[C@@H](C)CC[C@@H]2O)C[C@H]1Cc2ccccc2[C@]12CC[C@@](Nc1cccc(Cl)c1)(C(=O)O)CC2 [Example 675, (1r,2′S,4S)-4-(3-chloroanilino)-2′-[(2R)-3-{[(5S,8S)-8-hydroxy-5-methyl-5,6,7,8-tetrahydroquinolin-4-yl]oxy}-2-methylpropyl]-2′,3′-dihydrospiro[cyclohexane-1,1′-indene]-4-carboxylic acid] | 6980 | – |
| 57.1 | O=C(O)[C@]1(Nc2cccc(Cl)c2)CC[C@@]2(CC1)c1ccccc1CC2CC(COc1ccnc2ccsc12)Cc1ccccc1 (single isomer, unassigned) [Example 561, (1r,4r)-2′-{2-benzyl-3-[(thieno[3,2-b]pyridin-7-yl)oxy]propyl}-4-(3-chloroanilino)-2′,3′-dihydrospiro[cyclohexane-1,1′-indene]-4-carboxylic acid] | – | 12300 |
| 5.54 | CC1CCc2c(OC[C@H](C)C[C@H]3Cc4ccccc4[C@]34CC[C@@](Nc3cccc(Cl)c3)(C(=O)O)CC4)ccnc2C1 (stereo partly drawn) [Example 650, (1r,2′S,4S)-4-(3-chloroanilino)-2′-{(2R)-2-methyl-3-[(7-methyl-5,6,7,8-tetrahydroquinolin-4-yl)oxy]propyl}-2′,3′-dihydrospiro[cyclohexane-1,1′-indene]-4-carboxylic acid] | 912 | – |
